According to patent publication US6319952A, “Compositions and methods for reversibly increasing permeability of biomembranes” (D-Pharm Ltd., priority 1997, dated 2001):

Columns and labels:
[1] = tested on: bovine brain capillary endothelial cells in co-culture with astrocytes; experiment: Transcellular permeability (albumin-FITC clearance), in vitro coculture model of the BBB; type: cell-based; conditions: 0.24 mg/ml
Method: 1 hr incubation with the test material and five different concentrations: 0.04; 0.08; 0.16; 0.24; 0.32 mg/ml corresponding to 0.125; 0.25; 0.5; 0.75; 1×10^-3 M, were chosen for this experiment.
Stock solution of DP-BFA was added directly to the coculture medium (upper compartment) in order to obtain a dilution of 1:40.
Permeability studies was carried out on the monolayer of endothelial cells using a transcellular tracer: albumin-FITC (fluorescein isothiocyanate), MW=66500. There is no albumin receptor on endothelial cells. Albumin crossed the monolayer by a non-specific transport.
To obtain a concentration-dependent transport parameter, the clearance principle was used like sucrose or inulin (see paragraph 2.2.).
Albumin-FITC was used on endothelial cells at the concentration of 100 μg/ml in Ringer-Hepes 0.4% albumin.
The fluorescence of each sample was determined at λexcitation of 495 and λemission of 525 using a fluorescence spectrophotometer F-2000 (Hitachi).
In that case, the results are presented as clearance (μl) in function of time (min) and clearance at 180 minutes for each condition.

[2] = tested on: bovine brain capillary endothelial cells (actin filaments); experiment: Actin staining of endothelial cells (fluorescent microscopy); type: cell-based
Method: To investigate the origin of this modification of the permeability, fluorescent microscopy studies were undertaken. Actin filaments were localized with bodipy phallo?din (explanations in section 7.1.).
The medium was removed and filter-grown endothelial cells were washed gently twice with Ringer-Hepes buffer.
Filter-grown endothelial cells were fixed in 4% PAF (paraformadehyde, in PHS buffer supplemented with MgCl2, 2 mM and EGTA, 10 mM) for 15 min at 4° C.
PAF was removed and filter-grown endothelial cells were washed once with PHEMS buffer. The filter-grown endothelial cells can be stored in PHEMS buffer at 4° C.
The filter-grown endothelial cells were cut up in eight pieces in a large PHEMS buffer drop and stored in PHEMS. One piece was permeabilized with acetone at -20° C. for 1 min then stored in PHEMS buffer.
Actin filaments were localized with bodipy phallo?din (Molecular Probes, Inc.). The stain was dissolved in 1.5 ml of methanol (200 units/ml) but was used at 5 units/ml. 5 μl of stock solution was evaporated and redissolved in 200 μl of PHS buffer.
1/8 of permeabilized filter-grown endothelial cells was covered with 25 to 50 μl of stain solution, 30 min at room temperature in darkroom. The filter bearing the endothelial cells was rinsed twice with PHEMS buffer, once with water.
The filter-grown endothelial cells were mounted cell-side up on a microscope slide in mowiol. And was examined on a Leitz DMR microscope using oil immersion objectives.

[3] = Stability and solution appearance of DP-BFA; type: physicochemical
Method: DP-BFA is stored in a hermetically sealed dark vial filled with Argon at 5° C. for up to 3 months. The drug quantity was taken out the vial cap with a Teflon spatula. The compound was dissolved in sodium carbonate-sodium bicarbonate buffered saline solution adjusted to pH 8.8-9 at 37° C. A stock solution (12.8 mg/ml) was prepared and kept at 37° C. for 15 minutes. The solution was protected from light by covering it with aluminium foil. […] The desired concentration of DP-BFA was obtained by diluting the stock solution with the buffer. The solutions were filtered through a […] filter. The DP-BFA solutions were kept at 37° C. in vials protected from light, for no more than 6 hours.

[4] = tested on: mice; conditions: mouse, in vivo
[5] = tested on: rats; conditions: rat, in vivo

CCCCCCCCCCCCCCC(CCC)C(=O)O (stereo not shown) [M 3/14, 2-propylhexadecanoic acid]
non-specific transcellular transport ([1]; 1 hr incubation): increase of non-specific transcellular transport
activation at 240 µg/mL ([1]; Bos taurus, 1 hour incubation, read-out: increase in permeability of the monolayer for albumin (clearance at 180 minutes)): 268%
endothelial cell morphology ([2]; 0.08 mg/ml, 24 hrs): significant morphological changes
stress fibers (actin staining) ([2]; 0.08 mg/ml, 24 hrs): increase in numerous densely packed stress fibers
stress fibers (actin staining) ([2]; 0.16 mg/ml 1 hr, then 24 hrs without DP-BFA): less densely packed stress fibers
endothelial cell morphology ([2]; 0.16 mg/ml, 1 hr): significant morphological changes
stress fibers (actin staining) ([2]; 0.16 mg/ml, 1 hr): increase in numerous densely packed stress fibers
interendothelial cell gaps ([2]; 0.16 mg/ml, 24 hrs): Interendothelial cell gaps in the monolayer could be seen
appearance of stock solution ([3]; 12.8 mg/ml, carbonate-bicarbonate buffered saline, pH 8.8-9, 37° C.): completely transparent
stability (sensitivity to light, CO2) ([3]; white powder, sodium salt): sensitive to light and atmospheric CO2
brain edema or general edema [4]: no brain edema or general edema was observed
brain edema or general edema [5]: no brain edema or general edema was observed
change of behavior [5]: No change of behavior was observed
